Laboratory results published in US20240009170A1, “INHIBITION OF GLYCOGEN SYNTHASE KINASE-3 (GSK-3)” (Brown University, priority 2020, published 2024).

Assays:
GSK-3 = settings: cited from earlier work
[1] = system: HCT-116 colorectal cancer cells; experiment: Co-culture of HCT-116 and NK-92 cells with or without αPD-1 therapy; format: cell-based, Human; settings: not statistically significant
Protocol: (§1) Immune cell co-culture experiments. Co-culture experiments were conducted with GFP+ SW480 or HCT-116 colorectal cancer cells and either NK-92 natural killer cells or TALL-104 T cells in a 48-well plate, in the presence or absence of 9-ING-41. HCT-116 cells were labeled using CellTracker™ Green CMFDA (5-chloromethylfluorescein diacetate), immune cells (NK-92, TALL-104) were labeled using CellTracker™ Blue CMAC Dye (7-amino-4-chloromethylcoumarin), and ethidium homodimer-1 (EthD-1) was used as a marker of cell death (Invitrogen, Thermo Fisher Scientific, Waltham, MA, USA).

[2] = system: HCT-116 colorectal cancer cells; experiment: Co-culture of HCT-116 and TALL-104 cells with or without αPD-1 therapy; format: cell-based, Human; settings: for TALL-104-mediated tumor cell killing: αPD-1 antibody added to co-culture, compared to TALL-104 cells alone
Protocol: as §1
9-ING-41 increases tumor cell death in combination with αPD-1 therapy in a co-culture of HCT-116 colorectal cancer cells and immune cells. The inventors were interested in the applicability of GS3K-3 inhibitors such as 9-ING-41 in combination with immune checkpoint blockade. The inventors next performed co-cultures of immune cells (TALL-104, NK-92) and tumor cells (HCT-116) in the presence or absence of 9-ING-41, as well as either pembrolizumab® or nivolumab®, two humanized monoclonal antibodies against PD-1. The inventors evaluated HCT-116 cells in this co-culture model to determine if the 9-ING-41-mediated increase in immune cell-mediated SW480 cell killing could be reproduced in another colorectal cancer cell line.

Molecule	therapeutic index (GSK-3)	benefit in combination with NK-92 compared to NK-92 alone [1]	TALL-104-mediated tumor cell killing [2]	cell death, pembrolizumab+TALL-104 compared to nivolumab+TALL-104 [2]
[Li] [Lithium]	narrow therapeutic index			
nivolumab®: humanized monoclonal antibody against PD-1		limited benefit	increased amount of TALL-104-mediated tumor cell killing	
pembrolizumab®: humanized monoclonal antibody against PD-1		limited benefit	increased amount of TALL-104-mediated tumor cell killing	slight increase in cell death
